Measurements: ChEMBL document CHEMBL4823280, “Efficient Synthesis of Icetexane Diterpenes and Apoptosis Inducing Effect by Upregulating BiP-ATF4-CHOP Axis in Colorectal Cells” (J Nat Prod, 2021)
Calls of active or inactive are those of the source. The calls are words filed in the database; no cut-off is given here.

Experiments:
HCT-116 [1] = experiment: Cytotoxicity against human HCT-116 cells assessed as reduction in cell viability measured after 48 hrs by MTT assay; assay type: functional, cell-based; settings: HCT-116, 48 h
COLO 205 = experiment: Cytotoxicity against human COLO 205 cells assessed as reduction in cell viability measured after 48 hrs by MTT assay; assay type: functional, cell-based; settings: COLO 205, 48 h
Caco-2 = experiment: Cytotoxicity against human Caco-2 cells assessed as reduction in cell viability measured after 48 hrs by MTT assay; assay type: functional, cell-based; settings: Caco-2, 48 h
[2] = Stability of the compound in human HCT-116 cells assessed as Demethylsalvicanol-Quione formation measured after 72 hrs by HPLC analysis; assay type: ADME, cell-based; settings: hct-116, 72 h
HCT-116 [3] = experiment: Inhibition of colony formation in human HCT-116 cells at 1.25 to 10 uM incubated for 14 days by crystal violet staining based analysis; assay type: functional, cell-based; settings: dose 1.25-10 µM, time 14.0 day
HCT-116 [4] = experiment: Induction of apoptosis in human HCT-116 cells assessed as early apoptotic cells at 5 uM measured after 24 hrs by Annexin V-FITC/PI staining based flow cytometry analysis (Rvb= 7.48%); assay type: functional
HCT-116 [5] = experiment: Induction of apoptosis in human HCT-116 cells assessed as early apoptotic cells at 10 uM measured after 24 hrs by Annexin V-FITC/PI staining based flow cytometry analysis (Rvb= 7.48%); assay type: functional
HCT-116 [6] = experiment: Induction of ER stress in human HCT-116 cells assessed as increase in BiP protein expression measured after 6 hrs by western blotting analysis; assay type: functional, cell-based; settings: dose 5-20 µM
HCT-116 [7] = experiment: Induction of ER stress in human HCT-116 cells assessed as upregulation of ATF4 expression at 5 to 20 uM measured after 6 hrs by western blotting analysis; assay type: functional, cell-based; settings: dose 5-20 µM
HCT-116 [8] = experiment: Induction of ER stress in human HCT-116 cells assessed as upregulation of CHOP expression at 5 to 20 uM measured after 6 hrs by western blotting analysis; assay type: functional, cell-based; settings: dose 5-20 µM
HCT-116 [9] = experiment: Induction of ER stress in human HCT-116 cells assessed as increase in BiP nuclear translocation at 2.5 to 10 uM measured after 6 hrs by DAPI based immunostaining analysis; assay type: functional, cell-based; settings: dose 2.5-10 µM
HCT-116 [10] = experiment: Induction of ER stress in human HCT-116 cells assessed as colocalization of BiP with ATF4 at 20 uM measured after 12 hrs by immunofluorescence staining analysis; assay type: functional, cell-based
HCT-116 [11] = experiment: Induction of apoptosis in human HCT-116 cells assessed as viable cells at 5 uM measured after 24 hrs by Annexin V-FITC/PI staining based flow cytometry analysis (Rvb= 88.45%); assay type: functional; settings: read-out: Activity
HCT-116 [12] = experiment: Induction of apoptosis in human HCT-116 cells assessed as late apoptotic cells at 5 uM measured after 24 hrs by Annexin V-FITC/PI staining based flow cytometry analysis (Rvb= 2.89%); assay type: functional
HCT-116 [13] = experiment: Induction of apoptosis in human HCT-116 cells assessed as necrotic cells at 5 uM measured after 24 hrs by Annexin V-FITC/PI staining based flow cytometry analysis (Rvb= 1.18%); assay type: functional
HCT-116 [14] = experiment: Induction of apoptosis in human HCT-116 cells assessed as viable cells at 10 uM measured after 24 hrs by Annexin V-FITC/PI staining based flow cytometry analysis (Rvb= 88.45%); assay type: functional; settings: read-out: Activity
HCT-116 [15] = experiment: Induction of apoptosis in human HCT-116 cells assessed as late apoptotic cells at 10 uM measured after 24 hrs by Annexin V-FITC/PI staining based flow cytometry analysis (Rvb= 2.89%); assay type: functional
HCT-116 [16] = experiment: Induction of apoptosis in human HCT-116 cells assessed as necrotic cells at 10 uM measured after 24 hrs by Annexin V-FITC/PI staining based flow cytometry analysis (Rvb= 1.18%); assay type: functional

| Structure (SMILES) | IC50 (HCT-116 [1]) [µM] | IC50 (COLO 205) [µM] | IC50 (Caco-2) [µM] | other results |
| --- | --- | --- | --- | --- |
| CC(C)C1=CC2=C(C[C@@]34CCCC(C)(C)[C@@H]3C[C@@H]2O4)C(=O)C1=O | 13.3 | 10.4 | 3.86 |  |
| CC(C)c1cc2c(c(O)c1O)C[C@@]1(O)CCCC(C)(C)[C@@H]1CC2 | 18.8 | 11.2 | 3.07 |  |
| CC(C)c1cc2c(c(O)c1O)CC1=CCCC(C)(C)[C@@H]1CC2 | > 20.9 | > 20.9 | 13.7 |  |
| CC(C)c1cc2c(c(O)c1O)C=C1C=CCC(C)(C)[C@@H]1CC2 | 10.6 | 7.81 | 7.2 |  |
| CC(C)c1cc2c(c3c1O[C@@]1(C(C)C)C(=O)C(=O)C4=C(CC[C@H]5C(C)(C)CCC[C@]5(O)C4)[C@H]1O3)C[C@@]1(O)CCCC(C)(C)[C@@H]1CC2 | 2.7 | 3.39 | 2.69 | Stabilty [2]: Stable; inhibition (HCT-116 [3]): Active; Activity (HCT-116 [4]): 14.73%; Activity (HCT-116 [5]): 13.38%; Activity (HCT-116 [6]): Dose-Dependent Effect; Activity (HCT-116 [7]): Active; Activity (HCT-116 [8]): Active; Activity (HCT-116 [9]): Active; Activity (HCT-116 [10]): Active; viability at 5 µM (HCT-116 [11]): 63.6%; Activity (HCT-116 [12]): 16.43%; Activity (HCT-116 [13]): 5.28%; viability at 10 µM (HCT-116 [14]): 58.8%; Activity (HCT-116 [15]): 19.84%; Activity (HCT-116 [16]): 7.97% |
| CC(=O)Oc1c(C(C)C)cc2c(c1OC(C)=O)CC1=CCCC(C)(C)[C@@H]1CC2 | 18.6 | 18.5 | 10.4 |  |
| CC(=O)Oc1c(C(C)C)cc2c(c1OC(C)=O)C[C@@]13O[C@@H]1CCC(C)(C)[C@@H]3CC2 | 11.1 | 7.52 | 13.8 |  |
| CC(C)C1=CC2=C(C[C@@]3(O)CCCC(C)(C)[C@@H]3CC2)C(=O)C1=O | 2.93 | 3.18 | 2.71 |  |
| O=c1[nH]cc(F)c(=O)[nH]1 [FLUOROURACIL] | 7.38 | 5.29 | 7.77 |  |
| CC(C)c1cc2c(c(O)c1O)C[C@@]13CCCC(C)(C)[C@@H]1C[C@@H]2O3 [BRUSSONOL] | > 20.2 | > 20.2 | > 20.2 |  |
